# Measurements as given in patent US20200030355A1, “COMBINATION THERAPY FOR TREATING CANCER” (Epizyme, Inc., priority 2014, published 2020).
# Entries after “also recorded” stand apart in the source; their conditions may differ. Like-named read-outs stand apart in the source and are kept apart here.
# Assays:
# MOLM-13 (MLL-AF9) [1] = test: Combination proliferation study with Compound A2 (ATP/CellTiter-Glo, Chou-Talalay combination index); type: cell-based, human
# How it was run: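 Viability by CellTiter-Glo ATP luminescence; Fa relative to DMSO controls. Combination index by Chou-Talalay (CI<1 synergy, =1 additive, >1 antagonism).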
# EOL-1 (MLL-PTD) = test: Combination proliferation study with Compound A2; type: cell-based, human
# Procedure: (§1) The HP-D300 digital dispenser (Tecan) was used to dispense compounds in a combinatorial matrix. […] Cell viability was measured via ATP content using CellTiter-Glo® (Promega).
# (§2) Viability was determined using CellTiter-Glo® (Promega).
# KOPM-88 (MLL-PTD) = test: Combination proliferation study with Compound A2; type: cell-based, human
# Procedure: as §1, §2
# [2] = system: SKM-1 (non-MLL-rearranged AML); test: Combination proliferation study with Compound A2 (ATP/CellTiter-Glo, Chou-Talalay combination index); type: cell-based, human
# Procedure: (§3) Graphs representing values of combination index (CI) versus Fractional effect (Fa) known as Fa-CI plots were generated and synergy was evaluated.
# as §3, §1, §2
# MV4-11 cells were maintained in IMDM supplemented with 10% fetal bovine serum. MOLM-13 and SKM-1 cells were maintained in Roswell Park Memorial Institute medium (RPMI) supplemented with 10% fetal bovine serum. They were cultured in flasks or plates in a humidified 5% CO2 atmosphere.
# Proliferation studies were performed using MOLM-13, MV4-11 and SKM-1 cell lines in vitro to evaluate the cancer cell killing effect of a combination of two agents together on cell growth. Initial proliferation studies were performed to determine the IC50 values of a given compound in each cell line. The cell counts were measured by ATP quantitation using the Promega Cell Titer Glo kit and luminescence values correspond to the amount of ATP in a given well.
# Compounds evaluated for synergy in the co-treatment phase were tested in a range which was bracketed around the IC50's. The compounds were plated to a 96 well plate in a matrix format which includes increasing concentrations of each drug in the combination in a constant ratio, in addition to the effect of each compound alone in the study. Cells were seeded and grown in the log-linear phase for 3 or 7 days in the cotreatment phase. Maximum and minimum inhibition (DMSO alone) controls were used in each plate to calculate fraction affected (Fa) of a test well. DMSO concentration was kept at 0.1% v/v. The drug combination analysis was performed utilizing the Chou-Talalay method. Synergy was determined using the software package Calcusyn by Biosoft. The combination index (CI) is the term used to describe the level of synergy or antagonism in a given test system. A combination index less than one indicates synergy, and a CI greater than one indicates antagonism.
# The drug combination analysis was performed using the Chou-Talalay method. Graphs representing values of combination index (CI) versus Fractional effect (Fa) known as Fa-CI plots were generated and synergy was evaluated.
# MV4-11 (MLL-AF4) = test: as above; type: cell-based, human; settings: for Combination with Compound A2, MV4-111 MLL-AF4: Table 2, Example 3
# MOLM-13 cells [3] = test: CD11b and CD14 differentiation marker expression by flow cytometry; type: cell-based, human; settings: single agents
# Procedure: (§4) A Guava EasyCyte HT™ flow cytometer was used to measure DNA content, Annexin V staining and cell surface expression of CD14 and CD11b markers on Days 10 and 14.
# (§5) On Day 0 MOLM-13 cells are seeded at 3,000 cells/mL. On Day 7 and Day 10 MOLM-13 cells are counted and reseeded at 50,000 cells/mL. […] On Day 10 They were redosed again. On Day 14 the experiment was terminated. Cells were sampled for CD14 and CD11b analysis on Days 7, 10 and 14.
# On day 7, 10, and 14, cells were collected for analysis. The cells were prepared by washing twice in PBS, followed by fixation in 4% formaldehyde for ten minutes at 37° C. After fixation cells were washed and blocked with blocking buffer for 10 minutes at room temperature. Cells were then incubated in presence of anti-CD14, anti-CD11b or anti-IgG antibody for 1 hour at room temperature while rotating. Cells were washed, re-suspended in PBS and 5,000 events were analyzed using ExpressPro software on the GuavaCyte Plus System.
# MOLM-13 cells [4] = test: Apoptosis by Annexin V flow cytometry (Guava Nexin); type: cell-based, human
# Procedure: as §4, §5
# (§6) To evaluate the fraction of cells in each cell cycle, flow cytometric analysis was performed. FACS analysis for detection of cell death by apoptosis, and cell cycle was performed.
# (§7) Cells were harvested on days 7, 10 and 14 and split to allow simultaneous analysis of cell cycle and Annexin V staining. Apoptosis was determined using the Guava Nexin Assay (Millipore 4500-0450) and cells were prepared according to the manufacturer's recommendations. Samples were analyzed using the Guava EasyCyte Plus System (Millipore). Cells for cell cycle analysis were pelleted by centrifugation at 200×g for 5 minutes at 4° C., washed twice with ice cold PBS then fixed with 70% ice cold ethanol. All samples were analyzed together at end of experiment. Following fixation cells were washed with PBS and stained with the Guava cell cycle reagent (Millipore 4500-0220) for 30 minutes. Samples were analyzed using the Guava EasyCyte Plus System (Millipore).
# MOLM-13 cells [5] = test: Cell cycle / sub-G1 flow cytometry; type: cell-based, human; settings: 156 nM Compound A2 plus 63 nM Ara-C, 10 and 14 days
# Procedure: as §4, §5, §6, §7
# ML-2 (MLL-AF6) = test: EPZ-5676 7-day pre-treatment, then second compound 72 hours, growth inhibition GI100 shift (Example 7); type: cell-based
# Procedure: (§8) Cells were then equilibrated in incubators for 24 hours before treatment with a second compound. Treated assay plates were incubated with a second compound for 72 hours. After this time, plates were developed for endpoint analysis using ATPLite to measure ATP content, which is used as an indicator of cell viability.
# (§9) Cells were then treated with a second compound for 72 hours. After this time, plates were developed for endpoint analysis using Cell Titer Glo to measure ATP content, which is used as an indicator of cell viability.
# (§10) “N/D” means the GI100 of the second compound could not be determined for both conditions and “-” means not tested.
# (§11) Growth Inhibition (GI) as a measure of cell viability: The cell viability of vehicle was measured at the time of dosing the second agent (T0) and after seventy-two hours (T72). […] A GI 200% represents complete death of all cells in the culture well. Compounds reaching an activity plateau of GI 200% are considered cytotoxic. GI is calculated by applying the following test and equation: […]
# (§12) where T is the signal measure for a test article, V is the vehicle-treated control measure, and V0 is the vehicle control measure at time zero.
# MOLM-13 (MLL-AF9) [6] = test: EPZ-5676 7-day pre-treatment, then second compound 72 hours, growth inhibition GI100 shift; primary screen and retest (Example 7); type: cell-based, human
# Procedure: as §8, §9, §10, §11, §12
# SKM-1 (non-MLLr) = test: as above; type: cell-based, human; settings: 300 nM EPZ-5676 7-day pre-treatment
# Procedure: as §8, §9, §10, §11, §12
# OCI-AML-4 (MLL-ENL) = test: as above; type: cell-based
# Procedure: as §8, §9, §10, §11, §12
# [7] = 7 Day Cotreatment Model, Table 4
# [8] = Table 2, Example 3, listed as cytarabine
# [9] = 300 nM EPZ-5676 7-day pre-treatment, second compound 72 hours, ATPLite
smiles,measurement,setting,value
COc1cccc2c1C(=O)c1c(O)c3c(c(O)c1C2=O)C[C@@](O)(C(C)=O)C[C@@H]3O[C@H]1C[C@H](N)[C@H](O)[C@H](C)O1 [Daunorubicin],"Combination with Compound A2, MOLM-13 (MLL-AF9)",MOLM-13 (MLL-AF9) [1],Synergy (key: Synergy: Drug synergy was statistically defined by CI values less than 1; Antagonistic: antagonism by CI>1; Additive: additive effect by CI equal to 1)
same,Combination with Compound A2 when Compound A2 is washed out prior to the addition of the second agent,MOLM-13 (MLL-AF9) [1],synergistic anti-proliferative activity was maintained
same,"Combination with Compound A2, EOL-1 (MLL-PTD)",EOL-1 (MLL-PTD),Synergy (key: Synergy: Drug synergy was statistically defined by CI values less than 1; Antagonistic: antagonism by CI>1; Additive: additive effect by CI equal to 1)
same,"Combination with Compound A2, KOPM-88 (MLL-PTD)",KOPM-88 (MLL-PTD),Synergy (key: Synergy: Drug synergy was statistically defined by CI values less than 1; Antagonistic: antagonism by CI>1; Additive: additive effect by CI equal to 1)
same,"Combination with Compound A2, SKM-1 AML: Non-rearranged",[2],did not act synergistically
same,Effect of Compound A2 on the antiproliferative activity of the second agent,[2],did not affect
same,Combination with Compound A2 when Compound A2 is washed out prior to the addition of the second agent,MV4-11 (MLL-AF4),synergistic anti-proliferative activity was maintained
same,Differentiation markers CD11b and CD14,MOLM-13 cells [3],The same effect was observed
"Nc1ccn([C@@H]2O[C@H](CO)[C@@H](O)[C@@H]2O)c(=O)n1 [Ara-C, cytarabine]","Combination of Compound A2 and anti-cancer agent, MOLM-13","MOLM-13 (MLL-AF9) [1]; 4 + 3 Model: Compound A2 pretreatment 4 days, then co-treatment 3 days",Synergy (A combination index less than one indicates synergy)
same,"Combination of Compound A2 and anti-cancer agent, MOLM-13",MOLM-13 (MLL-AF9) [1]; 7 Day Cotreatment,Synergy (A combination index less than one indicates synergy)
same,"Combination with Compound A2, MOLM-13 (MLL-AF9)",MOLM-13 (MLL-AF9) [1]; [7],Strong Synergy
same,"Combination with Compound A2, reverse order of addition","MOLM-13 (MLL-AF9) [1]; MOLM-13, Ara-C 3 days, then cotreatment with Compound A2 7 days",Synergy
same,"Combination with Compound A2, reverse order of addition with Ara-C washout","MOLM-13 (MLL-AF9) [1]; MOLM-13, Ara-C 3 days, washed out, then Compound A2 7 days",Combination benefit is maintained
same,Combination with Compound A2 when Compound A2 is washed out prior to the addition of the second agent,"MOLM-13 (MLL-AF9) [1]; MOLM-13, pre-treatment model with Compound A2 washout",durable combination benefit; also recorded: synergistic anti-proliferative activity was maintained
same,"Combination with Compound A2, MOLM-13 (MLL-AF9)","MOLM-13 (MLL-AF9) [1]; Table 2, Example 3",Synergy (Drug synergy was statistically defined by CI values less than 1)
same,"Combination with Compound A2, MOLM-13 (MLL-AF9)",MOLM-13 (MLL-AF9) [1]; [8],synergistically
same,"Combination with Compound A2, EOL-1 (MLL-PTD)","EOL-1 (MLL-PTD); Table 3, Example 3",Synergy (Drug synergy was statistically defined by CI values less than 1)
same,"Combination with Compound A2, KOPM-88 (MLL-PTD)","KOPM-88 (MLL-PTD); Table 3, Example 3",Synergy (Drug synergy was statistically defined by CI values less than 1)
same,"Apoptosis, combination with Compound A2",MOLM-13 cells [4]; 156 nM Compound A2 plus 63 nM Ara-C,enhance apoptosis
same,"Induction of apoptosis, single agent","MOLM-13 cells [4]; 14 day treatment, 156 nM Compound A2 or 63 nM Ara-C",modest increase in apoptotic cell population
same,Effect of Compound A2 on the antiproliferative activity of the second agent,"[2]; SKM-1, non-MLL-rearranged, Example 5",did not affect
same,"Combination with Compound A2, SKM-1 AML: Non-rearranged",[2]; [8],did not act synergistically
same,"Combination of Compound A2 and anti-cancer agent, MV4-11",MV4-11 (MLL-AF4); 7 Day Cotreatment,Synergy (A combination index less than one indicates synergy)
same,Combination with Compound A2 when Compound A2 is washed out prior to the addition of the second agent,"MV4-11 (MLL-AF4); MV4-11, pre-treatment model with Compound A2 washout",synergistic anti-proliferative activity was maintained
same,"Combination with Compound A2, MV4-111 MLL-AF4",MV4-11 (MLL-AF4),Strong Synergy
same,"Combination with Compound A2, MV4-111 MLL-AF4",MV4-11 (MLL-AF4); listed as cytarabine,synergistically
same,"sub-G1 cell population, combination with Compound A2",MOLM-13 cells [5],significant increase in the population of sub-G1 cells
CC(=O)Nc1cccc(-n2c(=O)n(C3CC3)c(=O)c3c(Nc4ccc(I)cc4F)n(C)c(=O)c(C)c32)c1 [Trametinib],"Combination with Compound A2, MOLM-13 (MLL-AF9)",MOLM-13 (MLL-AF9) [1]; [7],Synergy (Drug synergy was statistically defined by CI values less than 1)
same,GI100,ML-2 (MLL-AF6),0.001
same,GI100,MOLM-13 (MLL-AF9) [6],0.03
same,"Combination with EPZ-5676, MOLM-13 (MLL-AF9) Retest","MOLM-13 (MLL-AF9) [6]; 150 nM EPZ-5676 7-day pre-treatment, second compound 72 hours, Cell Titer Glo",Synergy (considered synergistic if the GI100 (Growth inhibition 100) value of the second compound decreased by 2-fold or more when EPZ-5676 was added as compared to the DMSO control)
same,"Combination with EPZ-5676, MOLM-13 (MLL-AF9) Primary screen",MOLM-13 (MLL-AF9) [6]; [9],Synergy (considered synergistic if the GI100 (Growth inhibition 100) value of the second compound decreased by 2-fold or more when EPZ-5676 was added as compared to the DMSO control)
same,"Combination with EPZ-5676, SKM-1 (non-MLLr) Primary screen",SKM-1 (non-MLLr); ATPLite,Synergy (considered synergistic if the GI100 (Growth inhibition 100) value of the second compound decreased by 2-fold or more when EPZ-5676 was added as compared to the DMSO control)
same,"Combination with EPZ-5676, SKM-1 (non-MLLr) Retest",SKM-1 (non-MLLr); Cell Titer Glo,Synergy (considered synergistic if the GI100 (Growth inhibition 100) value of the second compound decreased by 2-fold or more when EPZ-5676 was added as compared to the DMSO control)
same,GI100,OCI-AML-4 (MLL-ENL),0.009
same,"Combination with EPZ-5676, OCI-AML-4 (MLL-ENL) Primary screen",OCI-AML-4 (MLL-ENL); [9],Synergy (considered synergistic if the GI100 (Growth inhibition 100) value of the second compound decreased by 2-fold or more when EPZ-5676 was added as compared to the DMSO control)
same,"Combination with EPZ-5676, OCI-AML-4 (MLL-ENL) Retest","OCI-AML-4 (MLL-ENL); 300 nM EPZ-5676 7-day pre-treatment, second compound 72 hours, Cell Titer Glo",Synergy (considered synergistic if the GI100 (Growth inhibition 100) value of the second compound decreased by 2-fold or more when EPZ-5676 was added as compared to the DMSO control)
